Experimental data published in PMC6152127, “Facile Synthesis of Novel Coumarin Derivatives, Antimicrobial Analysis, Enzyme Assay, Docking Study, ADMET Prediction and Toxicity Study” (Molecules : A Journal of Synthetic Chemistry and Natural …, 2017).
Converted amounts (≈) assume the structure as drawn.

Columns and labels:
[1] = system: Staphylococcus aureus (NCIM-2901); assay: In vitro antibacterial activity, MIC; type: cell-based; settings: Staphylococcus aureus, NCIM2901; average of three readings
Protocol: (§1) The newly synthesized compounds 4a–o were screened for their in vitro antibacterial activity against the three different bacterial strains. Minimum inhibitory concentration (MIC) values for antibacterial activity were determined by standard agar method using Ampicillin as standard drug. Dimethyl sulfoxide (DMSO) was used as solvent control. […] Compound 4e bearing a 2,4-difluoro group on the phenyl ring was 48 µg/mL for E. coli, 50 µg/mL for B. subtilis and 52 µg/mL for S. aureus.
(§2) All the synthesized compounds were screened for their in vitro antifungal and antibacterial activity. The antibacterial activity was evaluated against three human pathogenic bacterial strains: Escherichia coli (NCIM-2256), Bacillus subtilis (NCIM-2063) and Staphylococcus aureus (NCIM-2901). The antifungal activity was evaluated against seven human pathogenic fungal strains: Candida albicans (NCIM-3471), Candida glabrata (NCYC-388), Fusarium oxysporum (NCIM-1332), Aspergillus fumigates (NCIM-902), Aspergillus flavus (NCIM-539), Aspergillus niger (NCIM-1196) and Cryptococcus neoformans (NCIM-576), which are often encountered clinically. Miconazole was used as standard drug. Minimum inhibitory concentration (MIC) values were determined as per CLSI guidelines. Dimethyl sulfoxide (DMSO) was used as solvent control.
(§3) All the synthesized compounds 4a–o were screened for their in vitro antibacterial activity. Minimum inhibitory concentration (MIC) values were determined using method recommended by National Committee for Clinical Laboratory Standards (NCCLS). In vitro antibacterial activities of the synthesized compounds 4a–o were tested in Nutrient Broth (NB) for bacteria by the two fold serial dilution method. Seeded broth (broth containing microbial spores) was prepared in NB from 24 h old bacterial cultures on nutrient agar (Hi-media) at 37± 1 °C. The bacterial suspension was adjusted with sterile saline to a concentration of 1× 10^−4–10^−5 C.F.U. The synthesized compounds and standard drug Ampicillin were prepared by two fold serial dilutions to obtain the required concentrations of 400, 200, 100, 50, 25, 12.5, 6.25 and 3.13 μg/mL. The tubes were incubated in BOD incubators at 37± 1 °C for bacteria. The MICs were recorded by visual observations after 24 h (for bacteria) of incubation.

[2] = system: Escherichia coli (NCIM-2256); assay: In vitro antibacterial activity, MIC; type: cell-based; settings: Escherichia coli, NCIM2256; average of three readings
Protocol: as §1, §2, §3

[3] = system: Bacillus subtilis (NCIM-2063); assay: In vitro antibacterial activity, MIC; type: cell-based; settings: Bacillus subtilis, NCIM2063; average of three readings
Protocol: as §1, §2, §3

[4] = system: Aspergillus niger (NCIM-1196); assay: In vitro antifungal activity, MIC, agar method (CLSI); type: cell-based; settings: NCIM1196, average of three readings
Protocol: (§4) The newly synthesized 3-((dicyclohexylamino)(substituted phenyl/heteryl)methyl)-4-hydroxy-2H-chromen-2-one derivatives 4a–o were screened for their in vitro antifungal activity against different yeast and filamentous fungal pathogens. […] Dimethyl sulfoxide (DMSO) was used as solvent control.
as §2, with “Miconazole was used as standard drug.” left out
(§5) Antifungal activity was determined as per CLSI (formerly, NCCLS) guidelines. […] The medium yeast nitrogen base was dissolved in phosphate buffer pH 7 and it was autoclaved at 110 °C for 10 min. With each set a growth control without the antifungal agent and solvent control DMSO were included. The fungal strains were freshly sub cultured on to Sabouraud dextrose agar (SDA) and incubated at 25 °C for 72 h. The fungal cells were suspended in sterile distilled water and diluted to get 10^5 cells/mL. Ten μL of the standardized suspension was inoculated onto the control plates and the media incorporated with the antifungal agents. The inoculated plates were incubated at 25 °C for 48 h. The readings were taken at the end of 48 h and 72 h. The MIC was the lowest concentration of drug preventing growth of macroscopically visible colonies on drug containing plates when there was visible growth on the drug free control plates.

[5] = system: Aspergillus flavus (NCIM-539); assay: as above; type: cell-based; settings: NCIM539, average of three readings
Protocol: as §4
as §2, with “Miconazole was used as standard drug.” left out
as §5

[6] = system: Fusarium oxysporum (NCIM-1332); assay: as above; type: cell-based; settings: NCIM1332, average of three readings
Protocol: as §4
as §2, with “Miconazole was used as standard drug.” left out
as §5

[7] = system: Aspergillus fumigates (NCIM-902); assay: as above; type: cell-based; settings: NCIM902, average of three readings
Protocol: as §4
as §2, with “Miconazole was used as standard drug.” left out
as §5

[8] = system: Candida glabrata (NCYC-388); assay: as above; type: cell-based; settings: Nakaseomyces glabratus; average of three readings
Protocol: as §4
as §2, with “Miconazole was used as standard drug.” left out
as §5

[9] = system: Candida albicans (NCIM-3471); assay: as above; type: cell-based; settings: NCIM3471, average of three readings
Protocol: as §4
as §2, with “Miconazole was used as standard drug.” left out
as §5

[10] = system: Cryptococcus neoformans (NCIM-576); assay: as above; type: cell-based; settings: NCIM576, average of three readings
Protocol: as §4
as §2, with “Miconazole was used as standard drug.” left out
as §5

| Structure (SMILES) | melting point [°C] | MIC [1] [µg/mL] | MIC [2] [µg/mL] | MIC [3] [µg/mL] | MIC [4] [µg/mL] | MIC [5] [µg/mL] | MIC [6] [µg/mL] | MIC [7] [µg/mL] | MIC [8] [µg/mL] | MIC [9] [µg/mL] | MIC [10] [µg/mL] |
| --- | --- | --- | --- | --- | --- | --- | --- | --- | --- | --- | --- |
| COc1cc(C(c2c(O)c3ccccc3oc2=O)N(C2CCCCC2)C2CCCCC2)cc(OC)c1OC (stereo not shown) [Compound 4h, 3-((Dicyclohexylamino)(3,4,5-trimethoxyphenyl)methyl)-4-hydroxy-2H-chromen-2-one] | 136 to 138 | 66 (≈ 127 µM) | 68 (≈ 130 µM) | 68 (≈ 130 µM) | 34 (≈ 65.2 µM) | 38 (≈ 72.8 µM) | 45 (≈ 86.3 µM) | 50 (≈ 95.8 µM) | 64 (≈ 123 µM) | 48 (≈ 92 µM) | 34 (≈ 65.2 µM) |
| CCOc1cc(C(c2c(O)c3ccccc3oc2=O)N(C2CCCCC2)C2CCCCC2)ccc1O (stereo not shown) [Compound 4l, 3-((Dicyclohexylamino)(3-ethoxy-4-hydroxyphenyl)methyl)-4-hydroxy-2H-chromen-2-one] | 140 to 142 | 54 (≈ 110 µM) | 56 (≈ 114 µM) | 54 (≈ 110 µM) | 12 (≈ 24.4 µM) | 15 (≈ 30.5 µM) | 28 (≈ 57 µM) | 36 (≈ 73.2 µM) | 28 (≈ 57 µM) | 25 (≈ 50.9 µM) | 12 (≈ 24.4 µM) |
| Clc1ccc(COC(Cn2ccnc2)c2ccc(Cl)cc2Cl)c(Cl)c1 (stereo not shown) [Miconazole, reference compound] | – | – | – | – | 12 (≈ 28.8 µM) | 12 (≈ 28.8 µM) | 25 (≈ 60.1 µM) | 35 (≈ 84.1 µM) | 25 (≈ 60.1 µM) | 25 (≈ 60.1 µM) | 12 (≈ 28.8 µM) |

Further lines, results first:

| melting point [°C] | MIC [1] [µg/mL] | MIC [2] [µg/mL] | MIC [3] [µg/mL] | MIC [4] [µg/mL] | MIC [5] [µg/mL] | MIC [6] [µg/mL] | MIC [7] [µg/mL] | MIC [8] [µg/mL] | MIC [9] [µg/mL] | MIC [10] [µg/mL] | Structure (SMILES) |
| --- | --- | --- | --- | --- | --- | --- | --- | --- | --- | --- | --- |
| 128 to 130 | 67 (≈ 150 µM) | 64 (≈ 143 µM) | 66 (≈ 147 µM) | 28 (≈ 62.6 µM) | 25 (≈ 55.9 µM) | 35 (≈ 78.2 µM) | 42 (≈ 93.8 µM) | 35 (≈ 78.2 µM) | 32 (≈ 71.5 µM) | 24 (≈ 53.6 µM) | O=c1oc2ccccc2c(O)c1C(c1ccc(O)cc1)N(C1CCCCC1)C1CCCCC1 (stereo not shown) [Compound 4i, 3-((Dicyclohexylamino)(4-hydroxyphenyl)methyl)-4-hydroxy-2H-chromen-2-one] |
| 130 to 132 | 72 (≈ 161 µM) | 68 (≈ 152 µM) | 72 (≈ 161 µM) | 30 (≈ 67 µM) | 32 (≈ 71.5 µM) | 38 (≈ 84.9 µM) | 55 (≈ 123 µM) | 47 (≈ 105 µM) | 46 (≈ 103 µM) | 35 (≈ 78.2 µM) | O=c1oc2ccccc2c(O)c1C(c1ccccc1O)N(C1CCCCC1)C1CCCCC1 (stereo not shown) [Compound 4j, 3-((Dicyclohexylamino)(2-hydroxyphenyl)methyl)-4-hydroxy-2H-chromen-2-one] |
| 148 to 150 | 78 (≈ 180 µM) | 68 (≈ 157 µM) | 74 (≈ 171 µM) | 22 (≈ 50.9 µM) | 25 (≈ 57.8 µM) | 40 (≈ 92.5 µM) | 45 (≈ 104 µM) | 46 (≈ 106 µM) | 48 (≈ 111 µM) | 28 (≈ 64.7 µM) | O=c1oc2ccccc2c(O)c1C(c1ccccn1)N(C1CCCCC1)C1CCCCC1 (stereo not shown) [Compound 4m, 3-((Dicyclohexylamino)(pyridin-2-yl)methyl)-4-hydroxy-2H-chromen-2-one] |
| 140 to 142 | 72 (≈ 165 µM) | 65 (≈ 149 µM) | 74 (≈ 169 µM) | 38 (≈ 86.8 µM) | 32 (≈ 73.1 µM) | 58 (≈ 133 µM) | 67 (≈ 153 µM) | 53 (≈ 121 µM) | 55 (≈ 126 µM) | 33 (≈ 75.4 µM) | O=c1oc2ccccc2c(O)c1C(c1cccs1)N(C1CCCCC1)C1CCCCC1 (stereo not shown) [Compound 4n, 3-((Dicyclohexylamino)(thiophen-2-yl)methyl)-4-hydroxy-2H-chromen-2-one] |
